Test results as given in patent US11161815B2, “Hydrocarbylsulfonyl-substituted pyridines and their use in the treatment of cancer” (Oblique Therapeutics AB, priority 2017, dated 2021).

Experiments:
[1] = molecular target: recombinant thioredoxin reductase 1 (TrxR1) (Homo sapiens (Human), UniProt Q16881); experiment: Inhibition of recombinant TrxR1 (DTNB assay); assay type: biochemical; conditions: 30 nM TrxR1, 250 μM NADPH, 15 minutes incubation, read-out: TrxR Assay IC50
Method: (§1) Small molecule inhibition of recombinant thioredoxin reductase 1 (TrxR1) and gluthathione reductase (GR) was examined in 96-well plate format. 30 nM TrxR1 was incubated in the presence of 250 μM NADPH, 0.1 mg/ml BSA, and various concentrations of compound (1% DMSO final) in 50 mM Tris (pH 7.5) and 2 mM EDTA buffer for 15 minutes. Following the incubation period, 2 mM DTNB was added to each well and the change in O.D. at 412 nm was followed. Percent activity was determined using DMSO vehicle and no TrxR1 (blank) controls. 2 nM GR was incubated in the presence of 250 μM NADPH, 0.1 mg/ml BSA, and various concentrations of compounds (1% DMSO final) in 50 mM Tris (pH 7.5) and 2 mM EDTA buffer for 15 minutes. Following the incubation period, 1 mM GSSG was added to each well and the change in O.D. at 340 nm was followed. Percent activity was determined using DMSO vehicle and no GR (blank) controls.

[2] = molecular target: gluthathione reductase (GR) (Homo sapiens (Human), UniProt P00390); experiment: Inhibition of recombinant GR (GSSG assay); assay type: biochemical; conditions: 2 nM GR, 250 μM NADPH, 15 minutes incubation
Method: as §1

[3] = tested on: FaDu cells; experiment: Head and neck cancer cell viability assay (Cell-Quanti Blue); assay type: cell-based; conditions: Homo sapiens, 72 hrs, 10% FBS media containing 25 nM selenite
Method: (§2) FaDu cells were plated 2000 cells/well in 96-well black optical plates in the presence of 10% FBS media containing 25 nM selenite. The following day cells were treated with various concentrations of the compound of Example 1 (0.1% DMSO final) and incubated for 72 hrs. After the incubation Cell-Quanti Blue reagent was added to each well and incubated for additional 3 hrs. Fluorescence was read ex:530 nm/em:590 nm, and percent of viability was determined using DMSO vehicle and no cell (blank) controls.

[4] = tested on: MDA-MB-231 cells; experiment: Breast cancer cell viability assay (Alamar Blue); assay type: cell-based; conditions: Homo sapiens, 72 hrs, 10% FBS media containing 25 nM selenite
Method: as §2, with “MDA-MB-231” for “FaDu”, “compounds” for “the compound of Example 1”, “Alamar” for “Cell-Quanti”

[5] = tested on: U-87 MG; experiment: Cancer cell viability assay (MTT), U-87 MG; assay type: cell-based; conditions: Homo sapiens, 72 hrs, 10% FBS media
Method: (§3) Breast cancer and glioblastoma cell lines were plated 4000 cells/well in 96-well plates in the presence of 10% FBS media. The following day cells were treated with various concentrations of the example compounds (0.1% DMSO final) and incubated for 72 hrs. After the incubation An MTT assay was performed to access cell viability. Percent of viability was determined using DMSO vehicle and no cell (blank) controls.

[6] = tested on: MDA-MB-231; experiment: Cancer cell viability assay (MTT), MDA-MB-231; assay type: cell-based; conditions: Homo sapiens, 72 hrs, 10% FBS media
Method: as §3

[7] = tested on: MDA-MB-468; experiment: Cancer cell viability assay (MTT), MDA-MB-468; assay type: cell-based; conditions: Homo sapiens, 72 hrs, 10% FBS media
Method: as §3

Sequence of gluthathione reductase (GR) (P00390 44-522): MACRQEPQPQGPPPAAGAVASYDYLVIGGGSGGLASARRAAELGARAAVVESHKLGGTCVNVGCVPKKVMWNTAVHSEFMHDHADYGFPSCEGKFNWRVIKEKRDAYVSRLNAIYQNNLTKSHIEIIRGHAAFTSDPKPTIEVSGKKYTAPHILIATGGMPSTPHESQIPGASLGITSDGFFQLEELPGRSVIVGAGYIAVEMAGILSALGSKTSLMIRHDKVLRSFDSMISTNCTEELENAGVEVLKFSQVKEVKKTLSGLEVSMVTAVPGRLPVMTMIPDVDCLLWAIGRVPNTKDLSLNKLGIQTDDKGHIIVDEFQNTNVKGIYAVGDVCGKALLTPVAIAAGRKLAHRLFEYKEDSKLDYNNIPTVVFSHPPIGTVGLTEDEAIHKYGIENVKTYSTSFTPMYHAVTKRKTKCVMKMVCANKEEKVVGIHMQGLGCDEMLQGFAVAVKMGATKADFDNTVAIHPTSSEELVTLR
Sequence of recombinant thioredoxin reductase 1 (TrxR1) (Q16881 151-649): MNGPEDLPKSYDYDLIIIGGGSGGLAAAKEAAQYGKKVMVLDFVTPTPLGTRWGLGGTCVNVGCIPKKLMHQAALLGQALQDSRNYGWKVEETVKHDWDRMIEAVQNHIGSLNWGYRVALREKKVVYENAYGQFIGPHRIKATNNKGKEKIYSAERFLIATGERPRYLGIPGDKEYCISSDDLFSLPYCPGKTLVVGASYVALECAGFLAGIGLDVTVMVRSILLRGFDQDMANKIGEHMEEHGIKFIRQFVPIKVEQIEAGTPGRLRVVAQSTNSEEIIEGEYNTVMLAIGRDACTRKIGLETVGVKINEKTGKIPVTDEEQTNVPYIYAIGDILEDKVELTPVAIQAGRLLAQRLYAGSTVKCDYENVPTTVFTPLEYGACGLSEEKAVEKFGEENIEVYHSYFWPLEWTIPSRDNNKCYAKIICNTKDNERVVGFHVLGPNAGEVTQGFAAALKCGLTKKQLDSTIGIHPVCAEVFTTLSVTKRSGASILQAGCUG

SMILES | IC50 [1] [µM] | IC50 [2] [µM] | IC50 [3] [µM] | IC50 [4] [µM] | IC50 [5] [µM] | IC50 [6] [µM] | IC50 [7] [µM]
CCCCCCS(=O)(=O)c1nc(OC)ccc1[N+](=O)[O-] [Example 3, 2-Hexylsulfonyl-6-methoxy-3-nitropyridine] | 0.489 | > 100 | 0.45 | – | – | – | –
O=[N+]([O-])c1ccc(Cl)nc1S(=O)(=O)C1CCCC1 [Example 5, 6-Chloro-2-(cyclopentylsulfonyl)-3-nitropyridine] | 0.181 | 60.5 | 1.01 | – | – | – | –
CN(C)c1ccc([N+](=O)[O-])c(S(=O)(=O)C2CCCC2)n1 [Example 8, 2-Cyclopentylsulfonyl-6-dimethylamino-3-nitropyridine] | 0.188 | > 100 | 6.97 | – | – | – | –
CC[S+]([O-])c1nc(OC)ccc1[N+](=O)[O-] (centres unmarked) [Example 31, 2-Ethanesulfinyl-6-methoxy-3-nitro-pyridine] | 0.131 | > 100 | – | – | 6.22 | 3.51 | 3.23
CCCCCCS(=O)(=O)c1nc(N(C)C)ccc1[N+](=O)[O-] [Example 9, 6-Dimethylamino-2-hexylsulfonyl-3-nitropyridine] | 0.333 | > 100 | 12.7 | – | – | – | –
COc1ccc([N+](=O)[O-])c(S(=O)(=O)C2CCCC2)n1 [Example 2, 2-Cyclopentylsulfonyl-6-methoxy-3-nitropyridine] | 1.03 | > 100 | 3.65 | – | – | – | –
CCCCCCCC[S+]([O-])c1nc(OC)ccc1[N+](=O)[O-] (centres unmarked) [Example 33, 6-Methoxy-3-nitro-2-octylsulfinyl-pyridine] | 0.5 | 85.4 | – | – | 9.25 | 3.84 | 1.85
COc1ccc([N+](=O)[O-])c(S(=O)(=O)C2CC2)n1 [Example 13, 2-(cyclopropylsulfonyl)-6-methoxy-3-nitropyridine] | 0.16 | > 100 | – | – | 6.92 | 5.91 | 4.68
CN(C)c1ccc([N+](=O)[O-])c(S(=O)(=O)Cc2ccccc2)n1 [Example 7, 2-Benzylsulfonyl-6-dimethylamino-3-nitropyridine] | – | – | 2.88 | – | – | – | –

Next, values leading:

IC50 [1] [µM] | IC50 [2] [µM] | IC50 [3] [µM] | IC50 [4] [µM] | IC50 [5] [µM] | IC50 [6] [µM] | IC50 [7] [µM] | SMILES
0.0182 | > 100 | 0.28 | 3.81 | 6.11 | 1.8 | 2.89 | COc1ccc([N+](=O)[O-])c(S(=O)(=O)Cc2ccccc2)n1 [Example 1, 2-Benzylsulfonyl-6-methoxy-3-nitropyridine]
0.122 | > 100 | – | 11.4 | 16.3 | 18.4 | 5.47 | COc1ccc([N+](=O)[O-])c(S(=O)(=O)CCNC(C)=O)n1 [Example 15, N-(2-((6-methoxy-3-nitropyridin-2-yl)sulfonyl)ethyl)acetamide]
0.0606 | > 100 | – | 8.09 | 5.23 | 4.9 | 3.9 | COC(=O)CCS(=O)(=O)c1nc(OC)ccc1[N+](=O)[O-] [Example 16, methyl 3-((6-methoxy-3-nitropyridin-2-yl)sulfonyl)propanoate]
0.0392 | 18.1 | 0.66 | – | – | – | – | O=[N+]([O-])c1ccc(Cl)nc1S(=O)(=O)Cc1ccccc1 [Example 4, 2-Benzylsulfonyl-6-chloro-3-nitropyridine]
0.056 | 8.76 | 0.71 | – | – | – | – | CCCCCCS(=O)(=O)c1nc(Cl)ccc1[N+](=O)[O-] [Example 6, 6-Chloro-2-(hexylsulfonyl)-3-nitropyridine]
0.103 | > 100 | – | 12.5 | 19.5 | > 33 | 9.77 | COc1ccc([N+](=O)[O-])c(S(=O)(=O)CCCO)n1 [Example 17, 3-((6-methoxy-3-nitropyridin-2-yl)sulfonyl)propan-1-ol]
0.124 | > 100 | – | 2.95 | 5.95 | 5.12 | 3.16 | CCS(=O)(=O)c1nc(OC)ccc1[N+](=O)[O-] [Example 10, 2-(ethylsulfonyl)-6-methoxy-3-nitropyridine]
0.0969 | > 100 | – | 5.6 | 7.52 | 7.73 | 3.88 | COc1ccc([N+](=O)[O-])c(S(=O)(=O)CCCCC(F)(F)F)n1 [Example 14, 6-methoxy-3-nitro-2-((5,5,5-trifluoropentyl)sulfonyl)pyridine]
